Results published in patent US7888332B2, “Hydrazide-containing CFTR inhibitor compounds and uses thereof” (The Regents of the University of California, priority 2004, dated 2011).
Where two headings read alike, the source gives them in different places.

What was measured:
[1] = biological target: T1, CFTR (cAMP-stimulated short-circuit current) in mouse ileum (Mus musculus, UniProt P26361); experiment: Short-circuit current in intact mouse ileum
T1 construct: from tissue; host or cells: isolated mouse ileal segments in a micro-Ussing chamber
Experimental: (§1) The efficacy of GlyH-101 in inhibiting cAMP/cholera toxin-induced intestinal fluid secretion was also evaluated. Short-circuit current experiments were done in different cell types and in intact mouse ileum under non-permeabilized conditions and in the absence of a Cl^− gradient. In each case CFTR was activated by CPT-cAMP after ENaC inhibition by amiloride. […] Inhibition was ˜100% at higher GlyH-101 concentrations. Cholera toxin-induced intestinal fluid secretion was measured in an in vivo closed-loop model in which loops for each mouse were injected with saline (control), cholera toxin (1 μg), or cholera toxin (1 μg)+GlyH-101 (0.25 μg). GlyH-101 was added to the lumen (rather than systemically) based on initial studies showing poor intestinal absorption and little effect of systemically administered compound. Compared to the saline control, the cholera toxin-induced increase in fluid secretion over 4 hours, quantified from loop weight-to-length ratio, was 80% reduced by GlyH-101.

[2] = tested on: cholera toxin-induced intestinal fluid secretion; design: species or system mice; settings: mouse, in vivo
CFTR [3] = biological target: T2, CFTR (Homo sapiens, UniProt P13569); experiment: Whole-cell patch-clamp on FRT cells expressing CFTR; type: cell-based; design: expressed in transfected cells; host or cells: Fisher Rat Thyroid (FRT) cells, stably transfected; settings: for Ki: 5 μM forskolin, read-out: apparent Ki
Experimental: Patch-clamp experiments were carried out at room temperature on FRT cells stably expressing wildtype CFTR. Cell-attached and whole-cell configurations were used (Hamill et al., Pflugers Arch. 391:85-100, 1981). The cell membrane was clamped at specified voltages using an EPC-7 patch-clamp amplifier (List Medical). Data were filtered at 500 Hz and digitized at 2000 Hz. For whole-cell experiments the pipette solution contained (in mM): 120 CsCl, 10 TEA-Cl, 0.5 EGTA, 1 MgCl2, 40 mannitol, 10 Cs-HEPES and 3 mM MgATP (pH 7.3). For cell attached experiments EGTA was replaced with 1 mM CaCl2. The bath solution for whole-cell experiments contained (in mM): 150 NaCl, 1 CaCl2, 1 MgCl2, 10 glucose, 10 mannitol, 10 Na-TES (pH 7.4). In cell-attached experiments the bath solution contained (in mM): 130 KCl, 2 NaCl, 2 CaCl2, 2 MgCl2, 10 glucose, 20 mannitol, and 10 K-Hepes (pH 7.3). Inhibitors were applied by extracellular perfusion. CFTR channel activity in cell-attached patches was analyzed as described previously (Taddei et al., FEBS Lett. 558:52-56, 2004).
The mechanism of CFTR block by GlyH-101 was studied using the whole-cell configuration of the patch-clamp technique. After maximal activation of CFTR in stably transfected FRT cells by 5 μM forskolin, current-voltage relationships were measured at GlyH-101 concentrations from 0 to 50 μM. […] Extracellular perfusion with 10 μM GlyH-101 produced an immediate reduction in current that was strongly dependent on membrane potential (FIG. 4A, right panel). At more positive membrane potentials outward positive currents (Cl^− movement into the cell) were reduced compared to inward currents. […] Data for the thiazolidinone 3-[(3-trifluoromethyl)phenyl]-5-[(4-carboxyphenyl)methylene]-2-thioxo-4-thiazolidinone (referred to herein as CFTRinh-172) (5 μM) is shown for comparison. […] FIG. 4C summarizes percentage CFTR current block as a function of GlyH-101 concentration at different membrane voltages.

[4] = biological target: T3, CFTR (cAMP-stimulated short-circuit current) in human airway cells (Homo sapiens, UniProt P13569); experiment: Short-circuit current in human airway (primary human bronchial) cells; type: cell-based; settings: primary human bronchial cell cultures
T3 construct: endogenous in cells; host or cells: primary human bronchial epithelial cell cultures
Experimental: as §1

CFTR [5] = biological target: T2, CFTR; experiment: Cell-based YFP fluorescence assay of iodide influx after CFTR activation (screening); design: expressed in transfected cells; host or cells: Fisher Rat Thyroid (FRT) cells, stably transfected
Experimental: Screening was performed using an integrated system (Beckman) consisting of a 3-meter robotic arm, CO2 incubator, plate washer, liquid handling work station, barcode reader, delidding station, plate sealer and two fluorescence plate readers (Optima, BMG Lab Technologies), each equipped with two syringe pumps and HQ500/20X (500±10 nm) excitation and HQ535/30M (535±15 nm) emission filters (Chroma).
One hundred thousand small molecules (most 350-550 daltons) were selected for screening from commercial sources (ChemBridge and ChemDiv, both of San Diego, Calif.) using algorithms designed to maximize chemical diversity and drug-like properties. The compounds were obtained as a dried powder and solutions were made in DMSO just before testing, stored frozen as 2.5 mM stock solutions for further use.
For screening, cells in 96-well plates were washed three times and then CFTR halide conductance was activated by incubation for 15 minutes with an activating cocktail containing 10 μM forskolin, 20 μM apigenin and 100 μM isobutylmethyl-xanthine (IBMX). Test compounds (final 25 μM) were added 5 minutes prior to assay of iodide influx in which cells were exposed to a 100 mM inwardly-directed iodide gradient. YFP fluorescence was recorded for 2 seconds prior to and 12 seconds after creation of the iodide gradient. Initial rates of iodide influx were computed from the time course of decreasing fluorescence after the iodide gradient (Yang et al., J. Biol. Chem., 35079-35085, 2003).
A collection of 100,000 small, drug-like compounds was screened to identify new CFTR inhibitors. As diagrammed in FIG. 1A, compounds were screened at 25 μM in a cell-based assay of iodide influx after CFTR activation by an agonist mixture containing forskolin, IBMX and apigenin. Initial rates of iodide influx were computed from the kinetics of fluorescence decrease following chloride replacement by iodide. Four compounds (FIG. 1B) reducing iodide influx by greater than 50% were identified, which were not related structurally to known CFTR activators or inhibitors.

[6] = Initial studies of GlyH-101 intestinal absorption and systemic administration; type: in vivo
Experimental: as §1

[7] = CPT-cAMP after amiloride, read-out: Ki for inhibition of cAMP-stimulated short-circuit current
[8] = after GlyH-101 addition (10 μM)

T2 sequence (P13569 whole entry): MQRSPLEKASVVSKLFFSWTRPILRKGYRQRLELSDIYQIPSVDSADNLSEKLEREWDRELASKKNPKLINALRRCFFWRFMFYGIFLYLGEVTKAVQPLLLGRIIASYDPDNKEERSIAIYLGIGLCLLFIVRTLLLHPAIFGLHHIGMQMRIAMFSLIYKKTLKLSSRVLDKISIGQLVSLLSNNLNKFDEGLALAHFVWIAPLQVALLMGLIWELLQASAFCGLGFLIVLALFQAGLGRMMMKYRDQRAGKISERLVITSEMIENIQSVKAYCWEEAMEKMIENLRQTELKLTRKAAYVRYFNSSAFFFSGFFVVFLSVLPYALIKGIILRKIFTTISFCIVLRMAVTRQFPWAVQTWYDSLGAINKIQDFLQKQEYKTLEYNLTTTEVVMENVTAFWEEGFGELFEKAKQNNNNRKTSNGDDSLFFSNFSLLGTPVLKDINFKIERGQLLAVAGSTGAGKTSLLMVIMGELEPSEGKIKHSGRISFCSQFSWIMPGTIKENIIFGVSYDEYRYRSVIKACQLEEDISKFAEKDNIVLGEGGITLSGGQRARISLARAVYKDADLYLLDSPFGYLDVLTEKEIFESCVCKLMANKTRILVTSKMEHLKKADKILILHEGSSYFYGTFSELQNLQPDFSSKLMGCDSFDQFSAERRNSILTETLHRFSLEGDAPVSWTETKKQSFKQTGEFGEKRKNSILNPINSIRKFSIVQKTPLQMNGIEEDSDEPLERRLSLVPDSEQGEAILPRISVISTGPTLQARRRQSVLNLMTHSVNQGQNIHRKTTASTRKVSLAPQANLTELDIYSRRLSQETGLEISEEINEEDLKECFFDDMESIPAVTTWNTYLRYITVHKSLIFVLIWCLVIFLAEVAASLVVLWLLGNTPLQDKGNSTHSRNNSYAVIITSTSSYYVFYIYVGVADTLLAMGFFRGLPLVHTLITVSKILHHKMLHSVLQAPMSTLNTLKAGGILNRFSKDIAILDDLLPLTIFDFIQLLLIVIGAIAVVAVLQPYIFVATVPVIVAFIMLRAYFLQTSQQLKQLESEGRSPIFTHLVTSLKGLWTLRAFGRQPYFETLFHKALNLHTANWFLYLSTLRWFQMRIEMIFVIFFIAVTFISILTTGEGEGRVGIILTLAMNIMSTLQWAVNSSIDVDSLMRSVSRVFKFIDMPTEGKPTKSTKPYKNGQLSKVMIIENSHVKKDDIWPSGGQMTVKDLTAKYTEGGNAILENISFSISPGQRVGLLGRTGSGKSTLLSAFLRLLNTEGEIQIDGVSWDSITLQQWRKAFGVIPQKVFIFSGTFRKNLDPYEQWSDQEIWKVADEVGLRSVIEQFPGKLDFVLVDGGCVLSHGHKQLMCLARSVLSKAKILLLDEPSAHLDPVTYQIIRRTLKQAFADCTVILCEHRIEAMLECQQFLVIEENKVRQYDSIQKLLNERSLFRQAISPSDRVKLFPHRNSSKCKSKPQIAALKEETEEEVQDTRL
T1 sequence (P26361 whole entry): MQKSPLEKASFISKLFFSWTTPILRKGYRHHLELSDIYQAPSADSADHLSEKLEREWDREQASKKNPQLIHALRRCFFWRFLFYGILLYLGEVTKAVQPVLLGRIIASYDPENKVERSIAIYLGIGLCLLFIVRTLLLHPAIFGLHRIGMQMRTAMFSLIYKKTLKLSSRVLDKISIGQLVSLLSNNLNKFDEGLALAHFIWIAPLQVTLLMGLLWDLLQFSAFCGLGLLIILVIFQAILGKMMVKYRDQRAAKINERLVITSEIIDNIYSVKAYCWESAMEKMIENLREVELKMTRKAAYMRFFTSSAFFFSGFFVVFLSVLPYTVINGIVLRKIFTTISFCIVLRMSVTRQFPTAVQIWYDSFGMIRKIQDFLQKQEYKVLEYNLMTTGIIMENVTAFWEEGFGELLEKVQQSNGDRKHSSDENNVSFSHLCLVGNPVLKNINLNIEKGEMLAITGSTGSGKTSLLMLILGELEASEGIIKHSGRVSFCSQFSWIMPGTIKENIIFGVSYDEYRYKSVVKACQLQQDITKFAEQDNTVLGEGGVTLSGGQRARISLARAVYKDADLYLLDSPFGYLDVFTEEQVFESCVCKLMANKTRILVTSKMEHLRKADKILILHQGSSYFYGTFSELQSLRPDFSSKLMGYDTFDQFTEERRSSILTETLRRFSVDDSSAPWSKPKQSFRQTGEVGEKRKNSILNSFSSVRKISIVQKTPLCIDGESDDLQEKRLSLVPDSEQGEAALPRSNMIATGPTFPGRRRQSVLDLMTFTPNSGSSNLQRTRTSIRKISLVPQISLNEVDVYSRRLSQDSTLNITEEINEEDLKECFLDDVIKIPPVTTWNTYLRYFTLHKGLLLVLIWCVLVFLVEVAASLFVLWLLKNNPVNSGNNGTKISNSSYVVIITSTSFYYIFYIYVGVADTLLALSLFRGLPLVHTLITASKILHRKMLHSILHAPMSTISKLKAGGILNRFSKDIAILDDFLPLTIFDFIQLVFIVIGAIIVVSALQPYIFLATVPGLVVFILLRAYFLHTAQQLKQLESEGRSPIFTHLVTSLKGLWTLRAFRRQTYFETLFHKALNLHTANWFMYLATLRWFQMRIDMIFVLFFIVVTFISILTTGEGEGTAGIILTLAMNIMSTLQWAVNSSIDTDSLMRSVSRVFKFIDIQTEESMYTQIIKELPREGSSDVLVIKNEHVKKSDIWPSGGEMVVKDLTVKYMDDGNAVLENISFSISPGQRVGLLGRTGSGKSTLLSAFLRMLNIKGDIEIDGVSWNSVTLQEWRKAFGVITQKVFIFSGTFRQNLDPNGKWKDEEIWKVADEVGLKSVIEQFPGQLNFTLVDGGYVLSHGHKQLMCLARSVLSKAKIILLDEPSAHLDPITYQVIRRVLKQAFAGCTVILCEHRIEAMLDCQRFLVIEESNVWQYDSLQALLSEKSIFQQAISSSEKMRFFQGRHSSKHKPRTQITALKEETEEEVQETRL
T3 sequence (P13569 whole entry): as the sequence (P13569 whole entry) above

Which results are given for O=C(CNc1ccc2ccccc2c1)NN=Cc1cc(Br)c(O)c(Br)c1O [GlyH-101, N-2-napthalenyl-[(3,5-dibromo-2,4-dihydroxyphenyl)methylene]glycine hydrazide]?
Inhibition at higher concentrations [1]: ~100%; Ki [1, 7]: ~5 µM; reduction of cholera toxin-induced increase in fluid secretion (loop weight-to-length ratio) [2]: 80%; increase of apparent Ki as applied potential varied from +60 to −60 mV (CFTR [3]): approximately four-fold; Hill coefficient nH (CFTR [3]; +20 mV): 0.7; Ki (CFTR [3]; +20 mV): 3.8 µM; Hill coefficient nH (CFTR [3]; +60 mV): 0.5; Ki (CFTR [3]; +60 mV): 1.4 µM; current-voltage relationship (CFTR [3]; GlyH-101 at submaximal concentrations, CFTRinh-172 5 μM): inward rectification; Hill coefficient nH (CFTR [3]; −20 mV): 1.3; Ki (CFTR [3]; −20 mV): 5 µM; Hill coefficient nH (CFTR [3]; −60 mV): 1.8; Ki (CFTR [3]; −60 mV): 5.6 µM; inhibition of CFTR Cl− conductance at high concentrations (CFTR [3]; ≧30 μM, whole-cell patch-clamp and short-circuit current experiments): fully inhibited; Inhibition at higher concentrations [4]: ~100%; Ki [4, 7]: ~5 µM; CFTR inhibition after activation by different types of agonists (CFTR [5]; 50 μM GlyH-101, agonists 50 μM incl. CFTRact-01, 08, 10): effective CFTR inhibition; time of further inhibition (CFTR [5]; [8]): ~1 min; time within which 50% of the inhibition occurred (CFTR [5]; [8]): ≤ 1 s; reversal of inhibition after washout (CFTR [5]; washout): complete reversal; reversal of inhibition over 5 minutes after washout (CFTR [5]; washout, 5 minutes): > 75%; effect of systemically administered compound [6]: little effect; intestinal absorption [6]: poor; water solubility compared to CFTRinh-172 (Water solubility): 50 fold; water solubility (Water solubility; in water, 22° C., pH 6-8): 800 to 1300 µM
